Structures are written as SMILES. Like-named read-outs stand apart in the source and are kept apart here.

Holding throughout (type): biochemical
Data set [1] deals with human liver microsomes (HLM). The experiment in a line: Inhibition of nicotine to nornicotine formation in pooled human liver microsomes. The note with it: nicotine 500 μM. Background: Liver microsomes are vesicles of endoplasmic reticulum, rich in cytochrome P450 enzymes.
In another data set the target is T1, UGT2B10 (Homo sapiens, UniProt P36537).
T1 sequence (P36537 24-528): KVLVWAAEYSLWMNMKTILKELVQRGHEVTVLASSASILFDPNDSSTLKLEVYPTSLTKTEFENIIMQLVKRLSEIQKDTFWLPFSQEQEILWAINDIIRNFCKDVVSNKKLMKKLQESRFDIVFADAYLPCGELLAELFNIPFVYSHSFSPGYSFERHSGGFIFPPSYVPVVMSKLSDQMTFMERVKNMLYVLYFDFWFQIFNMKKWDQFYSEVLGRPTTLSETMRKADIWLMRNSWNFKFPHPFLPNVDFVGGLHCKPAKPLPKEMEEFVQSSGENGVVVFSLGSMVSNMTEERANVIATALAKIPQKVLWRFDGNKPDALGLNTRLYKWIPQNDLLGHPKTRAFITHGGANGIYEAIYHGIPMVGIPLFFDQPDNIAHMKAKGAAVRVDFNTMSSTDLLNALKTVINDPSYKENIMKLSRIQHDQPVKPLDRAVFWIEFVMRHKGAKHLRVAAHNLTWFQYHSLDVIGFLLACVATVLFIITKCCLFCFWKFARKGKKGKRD
The note with it: UGT2B10 microsomes; nicotine or cotinine as substrate; screening.

In the next data set the target is CYP2C19 (Homo sapiens, UniProt P33261). To be noted: 10 μM inhibitor; cotinine substrate; CYP2C19 microsomes.
CYP2C19, sequence (P33261 whole entry): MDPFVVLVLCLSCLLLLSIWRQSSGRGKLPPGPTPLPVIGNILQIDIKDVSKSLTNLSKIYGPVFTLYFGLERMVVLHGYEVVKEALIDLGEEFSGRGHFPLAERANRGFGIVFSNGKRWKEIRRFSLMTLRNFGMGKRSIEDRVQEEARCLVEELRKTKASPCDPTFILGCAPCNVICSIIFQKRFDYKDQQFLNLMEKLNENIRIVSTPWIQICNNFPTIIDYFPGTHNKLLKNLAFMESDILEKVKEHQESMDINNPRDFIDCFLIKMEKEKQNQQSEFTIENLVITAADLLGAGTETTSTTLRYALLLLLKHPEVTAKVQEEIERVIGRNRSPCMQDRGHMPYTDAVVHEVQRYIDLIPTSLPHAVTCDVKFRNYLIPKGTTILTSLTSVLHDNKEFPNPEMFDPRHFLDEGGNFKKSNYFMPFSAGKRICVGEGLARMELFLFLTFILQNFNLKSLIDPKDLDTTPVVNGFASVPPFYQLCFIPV
The target in the next data set is T2, CYP2B6 (Homo sapiens, UniProt P20813).
T2 sequence (P20813 1-491): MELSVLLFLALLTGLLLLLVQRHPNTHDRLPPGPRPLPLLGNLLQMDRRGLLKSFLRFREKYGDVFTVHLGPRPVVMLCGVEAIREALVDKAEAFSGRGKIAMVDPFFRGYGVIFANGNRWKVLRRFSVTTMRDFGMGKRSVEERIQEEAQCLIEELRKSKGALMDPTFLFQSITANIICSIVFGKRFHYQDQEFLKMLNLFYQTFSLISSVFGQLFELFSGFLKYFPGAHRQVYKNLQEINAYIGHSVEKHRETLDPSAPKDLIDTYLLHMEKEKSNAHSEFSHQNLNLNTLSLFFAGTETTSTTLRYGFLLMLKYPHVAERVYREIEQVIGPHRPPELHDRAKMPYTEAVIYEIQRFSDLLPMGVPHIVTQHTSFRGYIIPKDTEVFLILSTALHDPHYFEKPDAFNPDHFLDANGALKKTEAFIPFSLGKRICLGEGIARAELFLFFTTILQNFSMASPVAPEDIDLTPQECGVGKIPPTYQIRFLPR
To be noted: for inhibition of cotinine formation: nicotine substrate, CYP2B6 microsomes.

Data set [2] has as its system human liver microsomes (HLM). The experiment in a line: Inhibition of nicotine to cotinine formation in pooled human liver microsomes. The note with it: nicotine 500 μM.
A further data set has as its target T3, FMO1 (Homo sapiens, UniProt Q01740).
T3 sequence (Q01740 1-532): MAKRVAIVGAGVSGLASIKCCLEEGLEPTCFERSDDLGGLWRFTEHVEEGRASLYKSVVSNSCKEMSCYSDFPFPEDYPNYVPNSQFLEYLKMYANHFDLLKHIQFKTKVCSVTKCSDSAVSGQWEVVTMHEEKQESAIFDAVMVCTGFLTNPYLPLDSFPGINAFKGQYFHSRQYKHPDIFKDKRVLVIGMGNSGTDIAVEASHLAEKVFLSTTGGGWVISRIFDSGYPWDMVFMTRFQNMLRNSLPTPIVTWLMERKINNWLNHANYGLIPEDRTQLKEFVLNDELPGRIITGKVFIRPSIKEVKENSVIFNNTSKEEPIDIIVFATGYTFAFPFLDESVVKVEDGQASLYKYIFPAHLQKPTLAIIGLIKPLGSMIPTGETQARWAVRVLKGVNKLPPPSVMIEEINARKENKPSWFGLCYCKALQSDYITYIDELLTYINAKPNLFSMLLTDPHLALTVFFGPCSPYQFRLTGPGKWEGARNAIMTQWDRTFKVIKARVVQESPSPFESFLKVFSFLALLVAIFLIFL
The note with it: 1 or 10 μM cannabinoid; nicotine 1 mM; FMO1 microsomes.

A further data set addresses T4, UGT1A9 (Homo sapiens, UniProt O60656).
T4 sequence (O60656 26-530): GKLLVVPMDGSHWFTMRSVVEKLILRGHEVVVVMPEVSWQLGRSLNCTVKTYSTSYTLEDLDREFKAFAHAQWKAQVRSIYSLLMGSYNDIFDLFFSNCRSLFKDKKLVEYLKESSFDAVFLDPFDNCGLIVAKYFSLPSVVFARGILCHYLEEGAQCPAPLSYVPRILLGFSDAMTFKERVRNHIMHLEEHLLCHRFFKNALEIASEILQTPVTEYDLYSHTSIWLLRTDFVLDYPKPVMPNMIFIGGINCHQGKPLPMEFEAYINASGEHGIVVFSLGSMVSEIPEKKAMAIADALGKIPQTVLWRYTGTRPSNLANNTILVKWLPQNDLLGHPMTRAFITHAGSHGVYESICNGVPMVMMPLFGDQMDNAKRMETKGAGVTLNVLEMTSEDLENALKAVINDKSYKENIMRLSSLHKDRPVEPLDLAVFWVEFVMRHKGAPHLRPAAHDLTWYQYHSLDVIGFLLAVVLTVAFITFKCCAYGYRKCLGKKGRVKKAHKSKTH
The note with it: 3HC 30 mM; for decrease in 3HC-Gluc formation: UGT1A9 microsomes; for IC50: rec UGT1A9 microsomes.

The next data set deals with T5, UGT2B17 (Homo sapiens, UniProt O75795).
T5 sequence (O75795 24-530): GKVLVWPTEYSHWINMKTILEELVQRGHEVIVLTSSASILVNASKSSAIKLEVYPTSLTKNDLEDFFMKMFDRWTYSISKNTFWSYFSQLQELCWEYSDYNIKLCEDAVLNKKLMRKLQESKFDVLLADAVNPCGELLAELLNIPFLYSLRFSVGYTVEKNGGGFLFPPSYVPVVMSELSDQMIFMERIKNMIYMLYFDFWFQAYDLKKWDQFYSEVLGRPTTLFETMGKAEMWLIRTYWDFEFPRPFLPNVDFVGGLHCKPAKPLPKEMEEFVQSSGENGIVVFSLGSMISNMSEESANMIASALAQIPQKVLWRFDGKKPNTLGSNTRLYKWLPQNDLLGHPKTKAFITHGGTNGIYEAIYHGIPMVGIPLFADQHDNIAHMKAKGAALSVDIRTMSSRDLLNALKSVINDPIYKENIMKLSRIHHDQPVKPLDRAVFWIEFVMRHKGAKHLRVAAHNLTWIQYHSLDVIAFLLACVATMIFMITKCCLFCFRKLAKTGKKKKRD
The note with it: UGT2B17 microsomes; 3HC as substrate; screening.

The mark [3] stands for this setting: human, microsomes from CYP2B6-overexpressing HEK293 cells, pH 7.4, probe nicotine (cotinine formation).

On to `C=C(C)[C@@H]1CCC(CO)=C[C@H]1c1c(O)cc(CCCCC)cc1O` [7-OH-CBD, 7-hydroxy-cannabidiol], for which the IC50 (in general, the concentration at which inhibition is half-maximal) in data set [1] was 7.9 ± 2.5 µM; on CYP2B6 (cotinine formation, nicotine 500 μM, rec CYP2B6 microsomes), 15 ± 5.7 µM; in data set [2], 21 ± 5.2 µM. For the same compound, on UGT2B10, the “inhibition of nicotine-Gluc or cotinine-Gluc formation” value is “no significant inhibition”. For the same compound, the “inhibition of COX formation” value at CYP2C19 was 15%. Besides, the “inhibition of cotinine formation” value at CYP2B6 (1 μM inhibitor) is given as 35%; against CYP2B6 (10 μM inhibitor) it was 50%. Besides, the “inhibitory effect on NOX formation” value on FMO1 is “No inhibitory effect”.
`C=C(C)[C@@H]1CCC(C)=C[C@H]1c1c(O)cc(CCCCC)cc1O` [CBD, cannabidiol]: the IC50 in data set [1] worked out at 5.1 ± 1.1 µM; on UGT1A9 (IC50, 3HC-Gluc formation, 2% BSA), 9.7 ± 1.5 µM; on UGT1A9 (IC50,u (binding-corrected IC50), 3HC-Gluc formation, IC50 × fu,inc), 0.37 ± 0.06 µM; on CYP2B6 it was 4.2 ± 2.7 µM; in data set [2], 10 ± 2.9 µM. Besides, the entries for the “decrease in 3HC-Gluc formation” value on UGT1A9 (1 μM CBD) and on UGT1A9 (10 μM CBD) were 55% and 65%, respectively. For the same compound, the “inhibition of nicotine-Gluc or cotinine-Gluc formation” value against UGT2B10 is given as “no significant inhibition”. For the same compound, at CYP2B6 (setting [3]), the inhibition (as a rule, how much of the control response was suppressed) at 30 min, 1 µM was 50%. This compound also returned an inhibition at 30 min, 10 µM against CYP2B6 (setting [3]) of 65%. Moreover, the “effect on 3HC-Gluc formation” value on UGT2B17 is listed as “not inhibited”. The “inhibitory effect on NOX formation” value against FMO1 is “No inhibitory effect”.

The values are drawn from PMC9945182 (Chemical Research in Toxicology, 2023).
